Assay results as given in patent publication US20040152119A1, “Solid phase sequencing” (priority 2003, published 2004).

Test system: cloned DNA polymerase I genetically engineered to eliminate 3′-5′ exonuclease activity, 5′-3′exonuclease activity and discrimination against dideoxynucleotides
Test: Nucleic acid sequence detection by polymerase incorporation of gamma-phosphate-labeled dideoxynucleotide in the presence of shrimp alkaline phosphatase (fluorescence)
Type: biochemical
Conditions: 23° C.; for dye emission with Primer: Template 1: next template nucleotide dC (SEQ ID NO: 2); for dye emission with Primer: Template 2: next template nucleotide dT (SEQ ID NO: 3)
Method: Reactions were assembled at room temperature (23° C.) using the dideoxynucleotide of Example (1). Reactions contained primer template combinations having a single oligonucleotide primer (represented by SEQ ID NO: 1) annealed to one of two different oligonucleotide templates with either a dC or a dT as the next template nucleotide adjacent the 3′ terminus of the primer, corresponding to SEQ ID NO: 2 and SEQ ID NO: 3, respectively.
Referring now to FIG. 1, for template 1 (SEQ ID NO: 2) in the present example, DNA polymerase would be expected to extend the primer with labeled ddGTP. Similarly, for template 2 (SEQ ID NO: 3) in FIG. 1, DNA polymerase would be expected to extend the primer with ddATP, but not with labeled ddGTP.
Reaction conditions: A 70 μl reaction containing 25 mM Tris, pH 8.0, 5% glycerol 5 mM MgC12, 0.5 mM beta-mercaptoethanol, 0.01% tween-20, 0.25 units shrimp alkaline phosphatase, 100 nM primer annealed to template (the next template nucleotide is either dCMP or dTMP, as indicated), and 2 μM ddGTP-CF3-Coumarin was assembled in a quartz fluorescence ultra-microcuvet in a LS-55 Luminescence Spectrometer (Perkin Elmer), operated in time drive mode. Excitation and emission wavelengths are 390 nm and 500 nm respectively. Slit widths were 5 nm for excitation slits, 15 nm for emission slits. The reaction was initiated by the addition of 0.35 μl (11 units) of a cloned DNA polymerase I genetically engineered to eliminate 3′-5′ exonuclease activity, 5′-3′exonuclease activity and discrimination against dideoxynucleotides and 0.25 mM MnCl2. […]

[1] = 2 μM ddATP-CN-Coumarin, excitation 410 nm, emission 450 nm, FIG. 2
[2] = 2 μM ddGTP-CF3-Coumarin, excitation 390 nm, emission 500 nm, FIG. 1

Compound	dye emission with Primer: Template 1 [1]	dye emission with Primer: Template 2 [1]	dye emission with Primer: Template 1 [2]	dye emission with Primer: Template 2 [2]
N#Cc1cc2ccc(OP(=O)(O)OP(=O)(O)OP(=O)(O)OC[C@@H]3CC[C@H](n4cnc5c(N)ncnc54)O3)cc2oc1=O [gamma labeled ddATP, γ-(3-Cyanocoumarinyl)ddATP]	No detectable dye emission	dye emission was detected	–	–
Nc1nc2c(ncn2[C@H]2CC[C@@H](COP(=O)(O)OP(=O)(O)OP(=O)(O)Oc3ccc4c(C(F)(F)F)cc(=O)oc4c3)O2)c(=O)[nH]1 [gamma labeled ddGTP, γ-(4-trifluoromethylcoumarinyl)ddGTP]	–	–	dye emission was detected	No detectable dye emission
